Measured values as given in ChEMBL document CHEMBL3621077, “Synthesis of hybrid anticancer agents based on kinase and histone deacetylase inhibitors” (Medchemcomm, 2014).
The source made the active and inactive calls. No cut-off for these calls is given here.

Assays:
[1] = biological target: Platelet-derived growth factor receptor alpha (Homo sapiens, UniProt P16234); experiment: Inhibition of PDGFRa (unknown origin)
Histone deacetylase 8 = biological target: T1, Histone deacetylase 8 (Homo sapiens, UniProt Q9BY41); experiment: Inhibition of HDAC8 (unknown origin)
T1 sequence (Q9BY41 whole entry): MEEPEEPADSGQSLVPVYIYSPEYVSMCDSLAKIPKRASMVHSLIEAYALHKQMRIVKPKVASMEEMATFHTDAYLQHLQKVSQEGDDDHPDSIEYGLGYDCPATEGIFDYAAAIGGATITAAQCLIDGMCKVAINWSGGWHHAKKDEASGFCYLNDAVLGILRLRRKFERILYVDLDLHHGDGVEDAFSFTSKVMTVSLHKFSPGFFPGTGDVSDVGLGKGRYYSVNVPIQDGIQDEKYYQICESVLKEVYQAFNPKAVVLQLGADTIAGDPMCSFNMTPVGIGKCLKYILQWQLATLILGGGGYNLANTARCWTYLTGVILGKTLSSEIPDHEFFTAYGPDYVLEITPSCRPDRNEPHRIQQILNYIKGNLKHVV

[2] = biological target: Platelet-derived growth factor receptor beta (Homo sapiens, UniProt P09619); experiment: Inhibition of PDGFRb (unknown origin)
Sequence of Platelet-derived growth factor receptor beta (P09619 whole entry): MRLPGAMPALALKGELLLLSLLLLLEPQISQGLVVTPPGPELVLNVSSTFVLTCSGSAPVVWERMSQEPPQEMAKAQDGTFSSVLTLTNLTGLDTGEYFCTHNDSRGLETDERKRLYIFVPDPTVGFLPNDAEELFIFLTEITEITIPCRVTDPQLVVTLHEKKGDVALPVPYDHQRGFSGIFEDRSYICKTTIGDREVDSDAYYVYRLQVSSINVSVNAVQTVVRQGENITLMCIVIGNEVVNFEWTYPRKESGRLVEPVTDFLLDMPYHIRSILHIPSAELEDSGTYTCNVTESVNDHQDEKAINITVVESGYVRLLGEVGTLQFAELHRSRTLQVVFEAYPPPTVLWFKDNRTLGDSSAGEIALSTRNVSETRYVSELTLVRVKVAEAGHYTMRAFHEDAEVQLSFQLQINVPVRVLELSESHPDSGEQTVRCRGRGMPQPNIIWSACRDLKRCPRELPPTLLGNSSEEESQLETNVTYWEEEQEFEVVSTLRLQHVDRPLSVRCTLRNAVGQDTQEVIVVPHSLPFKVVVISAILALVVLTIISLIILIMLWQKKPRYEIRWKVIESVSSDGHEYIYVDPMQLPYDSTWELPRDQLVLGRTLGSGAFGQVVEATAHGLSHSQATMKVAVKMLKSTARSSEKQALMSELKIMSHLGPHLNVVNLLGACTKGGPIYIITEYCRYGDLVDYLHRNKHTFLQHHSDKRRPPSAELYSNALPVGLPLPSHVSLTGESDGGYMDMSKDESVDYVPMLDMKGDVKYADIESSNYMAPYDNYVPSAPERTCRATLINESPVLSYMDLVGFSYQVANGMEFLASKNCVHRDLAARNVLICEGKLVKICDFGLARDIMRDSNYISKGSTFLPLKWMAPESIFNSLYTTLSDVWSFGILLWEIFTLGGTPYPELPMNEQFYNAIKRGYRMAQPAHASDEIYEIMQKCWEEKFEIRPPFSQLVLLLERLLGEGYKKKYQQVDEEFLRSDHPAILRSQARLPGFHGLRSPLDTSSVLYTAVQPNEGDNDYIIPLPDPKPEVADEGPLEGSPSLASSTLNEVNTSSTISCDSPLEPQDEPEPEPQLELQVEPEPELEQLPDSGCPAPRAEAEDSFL

[3] = biological target: Vascular endothelial growth factor receptor 2 (Homo sapiens, UniProt P35968); experiment: Inhibition of VEGFR2 (unknown origin)
Sequence of Vascular endothelial growth factor receptor 2 (P35968 whole entry): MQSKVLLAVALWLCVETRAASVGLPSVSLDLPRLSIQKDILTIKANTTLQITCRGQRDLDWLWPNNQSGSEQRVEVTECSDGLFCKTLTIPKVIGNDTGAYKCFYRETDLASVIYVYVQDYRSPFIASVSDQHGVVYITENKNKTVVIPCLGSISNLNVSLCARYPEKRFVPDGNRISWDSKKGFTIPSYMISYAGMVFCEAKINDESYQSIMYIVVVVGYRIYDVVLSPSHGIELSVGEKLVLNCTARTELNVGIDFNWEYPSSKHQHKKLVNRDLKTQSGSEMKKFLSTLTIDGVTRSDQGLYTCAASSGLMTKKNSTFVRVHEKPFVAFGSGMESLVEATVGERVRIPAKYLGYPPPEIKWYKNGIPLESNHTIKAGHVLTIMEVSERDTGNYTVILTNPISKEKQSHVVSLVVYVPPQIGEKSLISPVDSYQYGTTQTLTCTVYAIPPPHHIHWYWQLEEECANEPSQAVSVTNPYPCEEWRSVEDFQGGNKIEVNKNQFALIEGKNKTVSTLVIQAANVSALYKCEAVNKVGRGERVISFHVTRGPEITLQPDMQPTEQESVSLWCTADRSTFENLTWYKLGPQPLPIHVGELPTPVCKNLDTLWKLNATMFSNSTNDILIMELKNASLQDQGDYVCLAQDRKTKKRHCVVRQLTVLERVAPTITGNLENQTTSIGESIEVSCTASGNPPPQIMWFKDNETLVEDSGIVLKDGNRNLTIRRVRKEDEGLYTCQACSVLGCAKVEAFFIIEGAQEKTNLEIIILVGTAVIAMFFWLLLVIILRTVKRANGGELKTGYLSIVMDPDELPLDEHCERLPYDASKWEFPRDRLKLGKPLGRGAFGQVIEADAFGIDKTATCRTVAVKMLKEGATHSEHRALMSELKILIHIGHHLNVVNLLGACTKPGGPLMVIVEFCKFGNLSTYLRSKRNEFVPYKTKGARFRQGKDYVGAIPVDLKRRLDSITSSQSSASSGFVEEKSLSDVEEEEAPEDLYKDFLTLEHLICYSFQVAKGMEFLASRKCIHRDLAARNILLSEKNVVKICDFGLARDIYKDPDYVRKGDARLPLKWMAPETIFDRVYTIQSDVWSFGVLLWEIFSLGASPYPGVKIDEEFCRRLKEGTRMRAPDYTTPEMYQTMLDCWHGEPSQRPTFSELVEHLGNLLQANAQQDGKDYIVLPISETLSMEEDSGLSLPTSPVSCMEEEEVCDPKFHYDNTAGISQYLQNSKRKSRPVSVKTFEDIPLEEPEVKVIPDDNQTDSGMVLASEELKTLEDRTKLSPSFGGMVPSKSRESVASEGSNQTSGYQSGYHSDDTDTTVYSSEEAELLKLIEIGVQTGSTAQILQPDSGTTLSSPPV

Histone deacetylase 9 = Histone deacetylase 9 (Homo sapiens, UniProt Q9UKV0); experiment: Inhibition of HDAC9 (unknown origin)
Histone deacetylase 4 = Histone deacetylase 4 (Homo sapiens, UniProt P56524); experiment: Inhibition of HDAC4 (unknown origin)
Histone deacetylase 7 = biological target: T2, Histone deacetylase 7 (Homo sapiens, UniProt Q8WUI4); experiment: Inhibition of HDAC7 (unknown origin)
T2 sequence (Q8WUI4 whole entry): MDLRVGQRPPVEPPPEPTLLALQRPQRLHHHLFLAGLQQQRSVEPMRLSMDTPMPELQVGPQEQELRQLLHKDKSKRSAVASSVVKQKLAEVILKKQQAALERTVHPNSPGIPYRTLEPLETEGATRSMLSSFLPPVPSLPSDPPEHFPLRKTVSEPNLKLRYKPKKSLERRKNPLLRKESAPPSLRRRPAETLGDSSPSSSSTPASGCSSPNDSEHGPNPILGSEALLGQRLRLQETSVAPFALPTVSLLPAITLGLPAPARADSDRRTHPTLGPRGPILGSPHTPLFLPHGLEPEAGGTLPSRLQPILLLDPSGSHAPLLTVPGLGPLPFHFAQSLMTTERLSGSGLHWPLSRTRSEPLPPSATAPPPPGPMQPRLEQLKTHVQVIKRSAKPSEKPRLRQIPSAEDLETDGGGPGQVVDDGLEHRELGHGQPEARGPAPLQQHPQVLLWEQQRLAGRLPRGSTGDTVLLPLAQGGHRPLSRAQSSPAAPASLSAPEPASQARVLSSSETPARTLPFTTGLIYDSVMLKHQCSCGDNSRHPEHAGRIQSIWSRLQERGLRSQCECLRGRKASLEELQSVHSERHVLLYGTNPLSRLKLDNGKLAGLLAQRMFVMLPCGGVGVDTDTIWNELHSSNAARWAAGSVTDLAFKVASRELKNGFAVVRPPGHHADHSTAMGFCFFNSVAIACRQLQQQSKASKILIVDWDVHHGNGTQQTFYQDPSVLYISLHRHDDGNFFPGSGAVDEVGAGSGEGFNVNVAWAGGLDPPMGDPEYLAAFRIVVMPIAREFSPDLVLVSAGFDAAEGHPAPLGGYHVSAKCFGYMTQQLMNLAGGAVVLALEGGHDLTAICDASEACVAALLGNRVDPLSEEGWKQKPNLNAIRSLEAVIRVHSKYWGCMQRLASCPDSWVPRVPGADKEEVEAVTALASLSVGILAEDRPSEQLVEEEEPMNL

[4] = biological target: Vascular endothelial growth factor receptor 1 (Homo sapiens, UniProt P17948); experiment: Inhibition of VEGFR1 (unknown origin)
Sequence of Vascular endothelial growth factor receptor 1 (P17948 whole entry): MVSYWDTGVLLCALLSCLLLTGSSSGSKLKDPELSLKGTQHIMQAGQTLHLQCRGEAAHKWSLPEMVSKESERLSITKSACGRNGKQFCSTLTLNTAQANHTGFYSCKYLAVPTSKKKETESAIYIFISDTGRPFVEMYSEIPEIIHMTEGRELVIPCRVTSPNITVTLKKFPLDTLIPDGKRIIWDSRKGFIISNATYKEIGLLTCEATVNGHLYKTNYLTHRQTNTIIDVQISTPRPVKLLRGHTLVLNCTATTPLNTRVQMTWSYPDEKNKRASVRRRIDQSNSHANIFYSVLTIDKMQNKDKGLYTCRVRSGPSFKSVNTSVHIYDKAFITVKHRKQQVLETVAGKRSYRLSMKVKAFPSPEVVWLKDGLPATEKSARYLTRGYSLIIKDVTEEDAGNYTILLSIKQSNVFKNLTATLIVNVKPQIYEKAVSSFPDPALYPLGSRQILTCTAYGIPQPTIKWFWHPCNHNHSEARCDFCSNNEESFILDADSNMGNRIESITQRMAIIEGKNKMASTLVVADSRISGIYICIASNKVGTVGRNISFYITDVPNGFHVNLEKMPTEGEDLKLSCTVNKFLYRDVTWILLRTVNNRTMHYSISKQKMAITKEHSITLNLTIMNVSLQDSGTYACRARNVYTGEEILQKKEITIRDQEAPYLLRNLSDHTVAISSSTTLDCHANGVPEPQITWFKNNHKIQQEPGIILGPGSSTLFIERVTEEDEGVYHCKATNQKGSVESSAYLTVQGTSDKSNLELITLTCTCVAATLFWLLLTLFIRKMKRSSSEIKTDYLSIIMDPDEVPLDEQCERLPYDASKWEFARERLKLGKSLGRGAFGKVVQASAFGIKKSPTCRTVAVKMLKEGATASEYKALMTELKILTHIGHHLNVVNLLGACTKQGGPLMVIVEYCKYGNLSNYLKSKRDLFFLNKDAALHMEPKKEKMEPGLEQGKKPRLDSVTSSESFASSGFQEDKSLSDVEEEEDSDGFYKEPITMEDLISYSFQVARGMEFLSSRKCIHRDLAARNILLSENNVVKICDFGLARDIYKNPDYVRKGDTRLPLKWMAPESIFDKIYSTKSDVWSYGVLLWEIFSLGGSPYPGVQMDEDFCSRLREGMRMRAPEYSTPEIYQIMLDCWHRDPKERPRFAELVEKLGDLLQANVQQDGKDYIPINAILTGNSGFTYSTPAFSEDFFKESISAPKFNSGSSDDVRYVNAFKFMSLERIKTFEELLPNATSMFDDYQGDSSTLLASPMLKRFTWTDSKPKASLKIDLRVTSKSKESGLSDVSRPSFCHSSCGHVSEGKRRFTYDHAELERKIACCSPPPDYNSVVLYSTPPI

Histone deacetylase 1 = Histone deacetylase 1 (Homo sapiens, UniProt Q13547); experiment: Inhibition of HDAC1 (unknown origin)
Sequence of Histone deacetylase 1 (Q13547 whole entry): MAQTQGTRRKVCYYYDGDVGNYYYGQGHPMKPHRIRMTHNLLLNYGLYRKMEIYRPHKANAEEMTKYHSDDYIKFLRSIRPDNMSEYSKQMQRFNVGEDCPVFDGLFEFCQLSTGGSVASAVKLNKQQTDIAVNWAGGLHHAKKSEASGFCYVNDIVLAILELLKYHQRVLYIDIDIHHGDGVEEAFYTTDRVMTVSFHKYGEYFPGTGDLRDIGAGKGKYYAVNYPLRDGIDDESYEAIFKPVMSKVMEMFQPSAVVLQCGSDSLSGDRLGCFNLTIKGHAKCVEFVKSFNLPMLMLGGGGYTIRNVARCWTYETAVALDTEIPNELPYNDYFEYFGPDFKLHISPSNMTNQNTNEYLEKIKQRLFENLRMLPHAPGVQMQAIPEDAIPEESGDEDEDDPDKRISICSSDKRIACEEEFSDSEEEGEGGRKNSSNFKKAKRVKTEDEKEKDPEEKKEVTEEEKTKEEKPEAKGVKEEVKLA

[5] = biological target: T3, Protein deacetylase HDAC6 (Homo sapiens, UniProt Q9UBN7); experiment: Inhibition of HDAC6 (unknown origin)
T3 sequence (Q9UBN7 whole entry): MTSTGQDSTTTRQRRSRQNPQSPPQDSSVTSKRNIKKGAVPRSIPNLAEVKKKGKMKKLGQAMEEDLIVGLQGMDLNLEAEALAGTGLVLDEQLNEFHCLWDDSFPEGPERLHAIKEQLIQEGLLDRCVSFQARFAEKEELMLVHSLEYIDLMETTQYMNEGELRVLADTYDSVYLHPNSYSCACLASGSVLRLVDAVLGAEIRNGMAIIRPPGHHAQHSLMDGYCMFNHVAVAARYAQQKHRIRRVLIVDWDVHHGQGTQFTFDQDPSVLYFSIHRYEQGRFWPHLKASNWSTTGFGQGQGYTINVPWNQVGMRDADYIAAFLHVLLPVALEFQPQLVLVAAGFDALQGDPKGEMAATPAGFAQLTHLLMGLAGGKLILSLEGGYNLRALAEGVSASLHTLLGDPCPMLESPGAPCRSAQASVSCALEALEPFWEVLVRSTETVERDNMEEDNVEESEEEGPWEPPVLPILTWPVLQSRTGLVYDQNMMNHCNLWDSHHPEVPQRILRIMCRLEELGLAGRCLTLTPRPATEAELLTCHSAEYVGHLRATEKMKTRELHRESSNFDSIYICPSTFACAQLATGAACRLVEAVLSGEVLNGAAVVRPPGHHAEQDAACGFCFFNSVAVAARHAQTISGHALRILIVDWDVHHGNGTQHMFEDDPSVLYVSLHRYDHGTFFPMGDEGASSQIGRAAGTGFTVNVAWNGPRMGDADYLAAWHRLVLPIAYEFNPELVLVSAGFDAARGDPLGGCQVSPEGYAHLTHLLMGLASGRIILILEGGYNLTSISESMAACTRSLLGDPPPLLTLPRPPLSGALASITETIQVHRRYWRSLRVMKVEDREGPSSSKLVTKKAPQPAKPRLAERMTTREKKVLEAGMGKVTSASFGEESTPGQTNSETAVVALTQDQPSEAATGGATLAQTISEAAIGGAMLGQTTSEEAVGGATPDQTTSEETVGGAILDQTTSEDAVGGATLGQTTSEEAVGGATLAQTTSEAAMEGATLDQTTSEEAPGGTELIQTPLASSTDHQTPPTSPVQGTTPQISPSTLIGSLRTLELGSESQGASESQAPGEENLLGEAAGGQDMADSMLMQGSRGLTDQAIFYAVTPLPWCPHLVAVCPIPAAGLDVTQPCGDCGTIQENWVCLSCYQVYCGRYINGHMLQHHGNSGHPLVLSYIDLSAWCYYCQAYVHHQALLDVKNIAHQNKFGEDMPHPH

Histone deacetylase 2 = Histone deacetylase 2 (Homo sapiens, UniProt Q92769)
Sequence of Histone deacetylase 2 (Q92769 whole entry): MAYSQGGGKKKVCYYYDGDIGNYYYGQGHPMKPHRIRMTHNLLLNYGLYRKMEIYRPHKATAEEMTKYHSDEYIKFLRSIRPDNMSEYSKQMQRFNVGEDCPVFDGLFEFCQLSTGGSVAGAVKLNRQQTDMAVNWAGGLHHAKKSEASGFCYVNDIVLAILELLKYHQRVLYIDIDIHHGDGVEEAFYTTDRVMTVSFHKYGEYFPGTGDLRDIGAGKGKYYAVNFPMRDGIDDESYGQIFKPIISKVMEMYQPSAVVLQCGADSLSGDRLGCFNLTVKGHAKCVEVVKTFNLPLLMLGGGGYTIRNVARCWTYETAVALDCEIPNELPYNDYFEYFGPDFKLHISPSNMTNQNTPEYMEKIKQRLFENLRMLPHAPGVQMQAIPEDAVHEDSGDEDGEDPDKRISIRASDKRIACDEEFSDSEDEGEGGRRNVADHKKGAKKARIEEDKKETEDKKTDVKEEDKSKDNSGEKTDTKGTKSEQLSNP

Histone deacetylase 5 = Histone deacetylase 5 (Homo sapiens, UniProt Q9UQL6); experiment: Inhibition of HDAC5 (unknown origin)
Histone deacetylase 3 = Histone deacetylase 3 (Homo sapiens, UniProt O15379); experiment: Inhibition of HDAC3 (unknown origin)
Xenopus laevis = organism: Xenopus laevis; conditions: at 10 to 100 µM
MDA-MB-231 [6] = experiment: Cytotoxicity against human MDA-MB-231 cells assessed as reversal of cell viability at 200 uM after 72 hrs by MTT assay in presence of SAHA; format: functional
MDA-MB-231 [7] = experiment: Cytotoxicity against human MDA-MB-231 cells assessed as reversal of cell viability at 10 uM after 72 hrs by MTT assay in presence of SAHA; format: functional, cell-based
[8] = biological target: Histone deacetylase (Homo sapiens) (UniProt Q13547+O15379+Q9UBN7+Q92769+Q9UQL6+Q8WUI4+Q9BY41+Q96DB2+P56524+Q9UKV0+Q969S8); experiment: Inhibition of HDAC isolated from human HeLa cells at 1 uM by fluorimetric assay; format: cell-free
Histone deacetylase = format: cell-based, Homo sapiens; conditions: hela

| IC50 [1] | IC50 [2] | IC50 [3] | IC50 (Histone deacetylase 9) | IC50 (Histone deacetylase 4) | IC50 (Histone deacetylase 7) | IC50 [4] | IC50 (Histone deacetylase 1) [nM] | IC50 (Histone deacetylase 2) [nM] | IC50 (Histone deacetylase 5) | IC50 (Histone deacetylase 3) [nM] | IC50 ([2]; read-out: IC50) [nM] | IC50 ([3]; read-out: IC50) [nM] | Structure (SMILES) | also measured |
| --- | --- | --- | --- | --- | --- | --- | --- | --- | --- | --- | --- | --- | --- | --- |
| Not Active | Not Active | Not Active | Not Active | Not Active | Not Active | Not Active | 1260 | 3290 | Not Active | 2.42 | – | – | Nc1ccccc1NC(=O)CCCCC(=O)Nc1ccc2c(c1)/C(=C/c1ccc[nH]1)C(=O)N2 | IC50 (Histone deacetylase 8): Not Active; IC50 [5]: Not Active |
| Not Active | Not Active | Not Active | Not Active | Not Active | Not Active | Not Active | 373 | 2230 | Not Active | 394 | – | – | Nc1ccccc1NC(=O)CCCCCCC(=O)Nc1ccc2c(c1)/C(=C/c1ccc[nH]1)C(=O)N2 | IC50 (Histone deacetylase 8): Not Active; IC50 ([5]; read-out: IC50): 4610 nM |
| – | Not Active | Not Active | – | – | – | Not Active | – | – | – | – | – | – | CSCCCNC(=O)c1ccc2c(c1)NC(=O)/C2=C\c1[nH]c(C)cc1C | – |
| – | – | – | – | – | – | – | – | – | – | – | – | – | Cc1cc(C)c(/C=C2\C(=O)Nc3ccccc32)[nH]1 | inhibition (Xenopus laevis): Active |
| – | – | – | – | – | – | Not Active | – | – | – | – | 8 | 38 | CSCCCNC(=O)c1ccc2c(c1)/C(=C/c1[nH]c(C)cc1C)C(=O)N2 | – |
| – | – | – | – | – | – | – | – | – | – | – | 637 | 405 | O=C1Nc2ccc(O)cc2/C1=C/c1ccc[nH]1 | IC50 ([1]; read-out: IC50): 406 nM; Activity (MDA-MB-231 [6]): 70%; Activity (MDA-MB-231 [7]): Active; IC50 ([4]; read-out: IC50): 116 nM |
| Not Active | Not Active | Not Active | – | – | – | Not Active | – | – | – | – | – | – | Cc1cc(C)c(/C=C2\C(=O)Nc3ccc(NC(=O)CCCCCCC(=O)NO)cc32)[nH]1 | inhibition [8]: > 20%; IC50 (Histone deacetylase): 443 nM |
| – | – | – | Not Active | Not Active | Not Active | – | – | – | Not Active | – | – | – | O=C(CCCCCCC(=O)Nc1ccccc1)NO [VORINOSTAT] | – |
| Not Active | – | – | Not Active | Not Active | Not Active | – | 9.37 | 20.4 | Not Active | 9.77 | 518 | 290 | O=C(CCCCC(=O)Nc1ccc2c(c1)/C(=C/c1ccc[nH]1)C(=O)N2)NO | IC50 (Histone deacetylase 8; read-out: IC50): 312 nM; IC50 ([4]; read-out: IC50): 205 nM; IC50 ([5]; read-out: IC50): 1.61 nM; IC50 (Histone deacetylase): 935 nM |
